This is an account of results in US10201556B2, “Combination for use in treating diseases or conditions associated with melanoma, or treating diseases or conditions associated with activated B-raf pathway” (InteRNA Technologies B.V., priority 2012, dated 2019).

The subject of data set [1] is A375Hu-R1 melanoma cell line. Kind of data set: Anti-proliferative effect of miRNA mimics, MTS assay. The data set is classed as cell-based, human. The note with it: 10 nM mimic, 72 hours after transfection. As to the method:
(§1) The anti-proliferative effect of miRNA's in melanoma cell lines was determined with mature miRNA mimics from Ambion. For each cell line optimal growth and transfection conditions were determined prior to the experiment. Cells were plated in a 96-well plate at 3000 cells per well (100 uL) and were grown at 37 C, 5% CO2. Transfection mix (20 uL per well) was made for each miRNA mimic concentration with 0.3 uL (M249, M249-R4) or 0.5 uL (A375Hu, A375Hu-R1, A2058, RPMI-7951) X-TremeGene (Roche) per well (according to manufacturer's instructions) in Optimem (Invitrogen). Cells were transfected 24 hours after plating in triplicate. Medium was replaced 48 hours after transfection with fresh medium.

Data set [2] deals with A375Hu melanoma cell line. The data set is described as above. It is filed as cell-based, human. The note with it: 10 nM mimic, 72 hours after transfection. As for the experimental part: as §1
For data set [3], the system named is BRAFV600E mutant melanoma cell lines A2058, RPMI-7951 and M233. Kind of data set: MTS cell viability after miR-3157 mimic transfection, intrinsically resistant lines. The data set is classed as cell-based. The conditions noted are these: A2058, RPMI-7951, M233; 10 nM mimic, 72 hours (FIG. 11b). As to the method: (§2) miR-3157 broadly affects melanoma cell line viability. Melanoma cell lines were divided into those that have the BRAFV600E mutation and are sensitive (a), intrinsically resistant (b) or acquired resistance to vemurafenib (c). Cell lines were transfected in triplicate with control miRNA or miR-3157 mimics (10 nM; n=2). Mock is transfectant only. Cell viability was determined using the MTS assay and calculated relative to mock transfected cells.
(§3) A375 cells were obtained from the Hubrecht Institute (Utrecht, The Netherlands); SKMEL-28, A2058 and RPMI-7951 were from the ATCC; SKMEL-57 was a gift from Dr. Patricia Groenen (Radboud University Nijmegen Medical Centre, The Netherlands); for cell line characteristics of M249, M249-AR4, M233 and M376 see (Atefi et al. 2011). A375-R, with in vitro acquired resistance to vemurafenib, was established in our lab by clonal selection of cells continually exposed to 1 μM vemurafenib. A375, A375-R, SKMEL-28, A2058 and SKMEL-57 were grown in DMEM GlutaMAX™-I (Gibco®), all other cell lines in RPMI-1640 (Gibco®). Media was supplemented with 10% FBS (Sigma), and cells were maintained in a humidified 37° C. incubator (Thermo Scientific) with 5% CO2. […]
(§4) Cells were seeded in 96-well plates and transfected the next day. […] Read-out was performed at 490 nm on a Multiskan FC plate reader (Thermo Scientific) at 72 hours post transfection.

Data set [4] has as its system BRAFV600E mutant melanoma cell lines SKMEL-28, SKMEL-57 and M249. Kind of data set: MTS cell viability after miR-3157 mimic transfection, vemurafenib-sensitive lines. It is filed as cell-based. The note with it: SKMEL-28, SKMEL-57, M249; 10 nM mimic, 72 hours (FIG. 11a). As to the method:
as §2, §3, §4

Data set [5] concerns ERK1/MAPK3, RRM2, AURKB, CDK4, BCL2, BIRC5 mRNA. Kind of data set: Quantitative real-time PCR of mRNA levels in A375 cells. The data set is classed as cell-based, human. The conditions noted are these: 10 nM mimic, compared to miRNA control (FIG. 12b). As to the method: Total RNA was isolated using TRI Reagent® (Sigma). To detect miR-3157 and U6 (small nuclear RNA RNU6-1) by qPCR, first 100 ng total RNA was mixed with 50 nM of a miR-3157 specific stem-loop (SL) primer or a U6 Reverse Transcriptase (RT) primer (Table 9), 33 μM dNTPs and 50 units M-MLV Reverse Transcriptase (RT) enzyme (Promega) in a 15 μl SL-RT reaction, and incubated for 30 min at 16° C., 30 min at 42° C. and 5 min at 85° C. For cDNA synthesis of total RNA, 1 μg RNA was mixed with 50 units M-MLV RT enzyme, 0.4 μg random hexamers (Qiagen) and 1 mM dNTPs in a 20 μl cDNA synthesis reaction, and incubated 10 min at 25° C., 120 min at 37° C. and 5 min at 85° C. For miR-3157 and U6 quantification, one μl SL-RT product was used for quantification in a single 20 μl qPCR reaction, using iQ™ SYBR® Green (Bio-Rad), and 0.625 μM forward and reverse primer (Table 9). The PCR protocol was 5 min 95° C. (1×), 10 s 95° C./20 s 60° C./10 s 72° C. (×45). For mRNA quantification, 1 μl cDNA was incubated with 1.25 μM gene-specific forward and reverse primers (Table 10) and iQ™ SYBR® Green in a 20 μl qPCR reaction for 5 min at 95° C. (1×), 15 s 95° C./30 s 60° C./30 s 72° C. (×45). PCR amplification was performed on a CFX96 Touch™ Real-Time PCR Detection System (Bio-Rad).

For “hsa-miR-3157-5p: mature miRNA mimic, SEQ ID NO 6 UUCAGCCAGGCUAGUGCAGUCU (listed as RNA, chemistry not given here)”, in data set [1], the “A375Hu-R1 % Viability 10 nM” value is 67%. Also, in data set [2], the “A375Hu % Viability 10 nM” value came to 42%. The “cell viability relative to mock transfected cells” value is listed as “viability was reduced” in data set [3] and “strongly reduced cell viability” in data set [4]. Moreover, the “mRNA levels of ERK1, RRM2, AURKB, CDK4, BCL2, BIRC5 by qPCR” value in data set [5] is on record as “reduced mRNA levels”.
